Measured values as given in PubChem BioAssay (NCI).
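Five compound concentrations were applied to cells in 96-well plates for 48 hours; endpoints were derived by simple linear interpolation of the resulting dose-response curve. Abbreviation: GI50, concentration required for 50% inhibition of growth. TGI: total growth inhibition.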

Experiments:
Assay in all cases: growth of human tumour cells (NCI), 48 h
HT29 colon = system: HT29 colon
IGROV1 ovarian = system: IGROV1 ovarian
K-562 leukemia = system: K-562 leukemia
LOX IMVI melanoma = system: LOX IMVI melanoma
NCI-H226 lung = system: NCI-H226 lung
NCI-H23 lung = system: NCI-H23 lung
NCI-H460 lung = system: NCI-H460 lung
SK-MEL-5 melanoma = system: SK-MEL-5 melanoma
PC-3 prostate = system: PC-3 prostate
BT-549 breast = system: BT-549 breast

`CSC(=Nc1ccc([N+](=O)[O-])cc1C#N)NC(=O)c1ccccc1` was tested. Which TGI (HT29 colon) did it give?
Its TGI is greater than 100 µM.

And the TGI (IGROV1 ovarian)?
The TGI was greater than 100 µM.

And the TGI (K-562 leukemia)?
Its TGI is greater than 100 µM.

And the TGI (LOX IMVI melanoma)?
Its TGI is greater than 100 µM.

And the TGI (NCI-H226 lung)?
The TGI was greater than 100 µM.

And the TGI (NCI-H23 lung)?
Its TGI is greater than 100 µM.

What about the TGI (NCI-H460 lung) of the same compound?
The TGI was greater than 100 µM.

And the TGI (SK-MEL-5 melanoma)?
Its TGI is greater than 100 µM.

For `O=S1(=O)[C@H](c2ccccc2)c2c(-c3ccccc3)sc(-c3ccccc3)c2[C@@H]1c1ccccc1`, which TGI (HT29 colon) is on record?
The TGI was greater than 100 µM.

And the TGI (IGROV1 ovarian)?
Its TGI is greater than 100 µM.

What about the TGI (K-562 leukemia) of the same compound?
The TGI was greater than 100 µM.

What about the TGI (LOX IMVI melanoma) of the same compound?
Its TGI is greater than 100 µM.

And the TGI (NCI-H23 lung)?
The TGI was greater than 100 µM.

What about the TGI (NCI-H460 lung) of the same compound?
Its TGI is greater than 100 µM.

And the TGI (SK-MEL-5 melanoma)?
Its TGI is greater than 100 µM.

What does the source list for `Nc1nc(N)c2cc(S(=O)(=O)c3cccc(C(F)(F)F)c3)ccc2n1`?
GI50 (HT29 colon): 2.42 µM; TGI (HT29 colon): > 100 µM; GI50 (IGROV1 ovarian): 5.28 µM; TGI (IGROV1 ovarian): > 100 µM; GI50 (K-562 leukemia): 0.682 µM; TGI (K-562 leukemia): > 100 µM; GI50 (LOX IMVI melanoma): 1.53 µM; TGI (LOX IMVI melanoma): > 100 µM; GI50 (NCI-H226 lung): 21.5 µM; TGI (NCI-H226 lung): > 100 µM; GI50 (NCI-H23 lung): 3.63 µM; TGI (NCI-H23 lung): > 100 µM; GI50 (NCI-H460 lung): 0.575 µM; TGI (NCI-H460 lung): > 100 µM; GI50 (PC-3 prostate): 3.36 µM; TGI (PC-3 prostate): > 100 µM; GI50 (SK-MEL-5 melanoma): 2.98 µM; TGI (SK-MEL-5 melanoma): > 100 µM

For `CCC(=O)N1C(=S)SC[C@H]1C(=O)OC`, which TGI (HT29 colon) is on record?
The TGI was greater than 100 µM.

What about the TGI (IGROV1 ovarian) of the same compound?
The TGI was greater than 100 µM.

What about the TGI (K-562 leukemia) of the same compound?
Its TGI is greater than 100 µM.

What about the TGI (LOX IMVI melanoma) of the same compound?
Its TGI is greater than 100 µM.

What about the TGI (NCI-H226 lung) of the same compound?
The TGI was greater than 100 µM.

What about the TGI (NCI-H23 lung) of the same compound?
Its TGI is greater than 100 µM.

What about the TGI (SK-MEL-5 melanoma) of the same compound?
The TGI was greater than 100 µM.

How did the TGI (HT29 colon) turn out when `CN(c1ccccc1)c1nc(=[N+](C)C)ss1` was run?
The TGI was greater than 100 µM.

What about the TGI (IGROV1 ovarian) of the same compound?
The TGI was greater than 100 µM.

And the TGI (K-562 leukemia)?
The TGI was greater than 100 µM.

And the TGI (NCI-H226 lung)?
The TGI was greater than 100 µM.

What about the TGI (NCI-H23 lung) of the same compound?
The TGI was greater than 100 µM.

And the TGI (NCI-H460 lung)?
Its TGI is greater than 100 µM.

What about the TGI (SK-MEL-5 melanoma) of the same compound?
The TGI was greater than 100 µM.

Which results are given for `CS(=O)(=O)N(CCC#N)c1ccc(/C=C2\N=C(c3ccccc3Cl)OC2=O)cc1`?
TGI (HT29 colon): > 100 µM; TGI (IGROV1 ovarian): > 100 µM; TGI (K-562 leukemia): > 100 µM; TGI (LOX IMVI melanoma): > 100 µM; TGI (NCI-H226 lung): > 100 µM; TGI (NCI-H23 lung): > 100 µM; TGI (NCI-H460 lung): > 100 µM; TGI (SK-MEL-5 melanoma): > 100 µM

Which results are given for `[N-]=[N+]=NC1C(Cl)C(=O)NC(=O)N1[C@H]1C[C@H](O)[C@@H](CO)O1` (stereo partly drawn)?
TGI (HT29 colon): > 100 µM; TGI (IGROV1 ovarian): > 100 µM; TGI (K-562 leukemia): > 100 µM; TGI (LOX IMVI melanoma): > 100 µM; TGI (NCI-H23 lung): > 100 µM; TGI (NCI-H460 lung): > 100 µM; GI50 (SK-MEL-5 melanoma): 12.3 µM; TGI (SK-MEL-5 melanoma): > 100 µM

Which results are given for `O=c1[nH]c(=O)n(Cc2ccc(C34CC5CC(CC(C5)C3)C4)c(O)c2)cc1F`?
GI50 (BT-549 breast): 14.4 µM; TGI (BT-549 breast): 28.1 µM; GI50 (HT29 colon): 14.2 µM; TGI (HT29 colon): 37.2 µM; GI50 (K-562 leukemia): 3.49 µM; TGI (K-562 leukemia): 18.2 µM; GI50 (LOX IMVI melanoma): 13.4 µM; TGI (LOX IMVI melanoma): 27.2 µM; GI50 (NCI-H226 lung): 16.7 µM; TGI (NCI-H226 lung): 32.6 µM; GI50 (NCI-H23 lung): 12.5 µM; TGI (NCI-H23 lung): 27.2 µM; GI50 (NCI-H460 lung): 16.5 µM; TGI (NCI-H460 lung): 43 µM; GI50 (SK-MEL-5 melanoma): 11.2 µM; TGI (SK-MEL-5 melanoma): 23.3 µM

Which results are given for `Clc1ccc(NCNC2Nc3ccccc3N2)cc1Cl`?
TGI (HT29 colon): 64 µM; TGI (K-562 leukemia): > 100 µM; TGI (LOX IMVI melanoma): > 100 µM; TGI (NCI-H226 lung): > 100 µM; TGI (NCI-H23 lung): > 100 µM; TGI (NCI-H460 lung): > 100 µM; TGI (PC-3 prostate): > 100 µM; TGI (SK-MEL-5 melanoma): 54.6 µM

With `CCOc1ccc2c(c1)[n+]([O-])c(C(N)=O)c(N)[n+]2[O-]` as the compound, how does the TGI (HT29 colon) read?
Its TGI is greater than 100 µM.

And the TGI (IGROV1 ovarian)?
The TGI was greater than 100 µM.

What about the TGI (K-562 leukemia) of the same compound?
Its TGI is greater than 100 µM.

What about the TGI (NCI-H226 lung) of the same compound?
The TGI was greater than 100 µM.

And the TGI (NCI-H23 lung)?
The TGI was greater than 100 µM.

What about the TGI (NCI-H460 lung) of the same compound?
The TGI was greater than 100 µM.

And the TGI (SK-MEL-5 melanoma)?
Its TGI is greater than 100 µM.

Which results are given for `O=C(c1ccccc1)[C@H]1Nc2ccc(Cl)cc2[C@H]2c3ccccc3O[C@H]21`?
TGI (HT29 colon): 26.1 µM; TGI (IGROV1 ovarian): 38.2 µM; TGI (K-562 leukemia): 36.7 µM; TGI (LOX IMVI melanoma): 37.2 µM; TGI (NCI-H23 lung): 28.1 µM; TGI (NCI-H460 lung): 34.3 µM; TGI (SK-MEL-5 melanoma): 27.5 µM

Which GI50 (HT29 colon) does the source give for `[O-]c1ccccc1C=NCCN=Cc1ccccc1[O-].[O]=[U+2]=[O]` here?
The GI50 was greater than 100 µM.

And the TGI (HT29 colon)?
The TGI was greater than 100 µM.

What about the GI50 (IGROV1 ovarian) of the same compound?
Its GI50 is 26.1 µM.

What about the TGI (IGROV1 ovarian) of the same compound?
Its TGI is 61.6 µM.

What about the GI50 (K-562 leukemia) of the same compound?
The GI50 was greater than 79.5 µM.

What about the TGI (K-562 leukemia) of the same compound?
Its TGI is greater than 100 µM.

What about the GI50 (LOX IMVI melanoma) of the same compound?
The GI50 was 22.2 µM.

What about the TGI (LOX IMVI melanoma) of the same compound?
The TGI was greater than 100 µM.

And the GI50 (NCI-H226 lung)?
The GI50 was greater than 42.5 µM.

And the TGI (NCI-H226 lung)?
The TGI was greater than 63.6 µM.

What about the GI50 (NCI-H23 lung) of the same compound?
The GI50 was 22.6 µM.

And the TGI (NCI-H23 lung)?
The TGI was 61.1 µM.

What about the GI50 (NCI-H460 lung) of the same compound?
Its GI50 is 19.6 µM.

And the TGI (NCI-H460 lung)?
The TGI was 43.7 µM.

And the GI50 (SK-MEL-5 melanoma)?
Its GI50 is 41.7 µM.

What about the TGI (SK-MEL-5 melanoma) of the same compound?
The TGI was greater than 81.8 µM.

Which results are given for `O=C1C2C3SC(c4cc5ccccc5cc43)C2C(=O)N1c1ccccc1` (stereo not drawn)?
TGI (HT29 colon): > 100 µM; TGI (IGROV1 ovarian): > 100 µM; TGI (K-562 leukemia): > 100 µM; TGI (LOX IMVI melanoma): > 100 µM; TGI (NCI-H226 lung): > 100 µM; TGI (NCI-H23 lung): > 100 µM; TGI (SK-MEL-5 melanoma): > 100 µM

What does the source list for `CC(C)CC(NC(=O)C(O)C(N)Cc1ccccc1)C(=O)O` (stereo not drawn)?
TGI (HT29 colon): > 100 µM; TGI (IGROV1 ovarian): > 100 µM; TGI (K-562 leukemia): > 100 µM; TGI (LOX IMVI melanoma): > 100 µM; TGI (NCI-H226 lung): > 100 µM; TGI (NCI-H23 lung): > 100 µM; TGI (NCI-H460 lung): > 100 µM; TGI (PC-3 prostate): > 100 µM; TGI (SK-MEL-5 melanoma): > 100 µM

With `O=C1CN=C(c2ccccc2)c2ccncc2N1` as the compound, how does the TGI (HT29 colon) read?
The TGI was greater than 100 µM.

And the TGI (IGROV1 ovarian)?
Its TGI is greater than 100 µM.

And the TGI (K-562 leukemia)?
The TGI was greater than 100 µM.

And the TGI (LOX IMVI melanoma)?
The TGI was greater than 100 µM.

And the TGI (NCI-H226 lung)?
The TGI was greater than 100 µM.

What about the TGI (NCI-H23 lung) of the same compound?
Its TGI is greater than 100 µM.

What about the TGI (SK-MEL-5 melanoma) of the same compound?
The TGI was greater than 100 µM.

With `CCOP(=O)(OCC)C(C(=O)OC)C(=O)C(=O)Nc1cccc([N+](=O)[O-])c1` (stereo not drawn) as the compound, how does the TGI (HT29 colon) read?
The TGI was greater than 100 µM.

What about the TGI (IGROV1 ovarian) of the same compound?
Its TGI is greater than 100 µM.

And the TGI (K-562 leukemia)?
The TGI was greater than 100 µM.

What about the TGI (LOX IMVI melanoma) of the same compound?
Its TGI is greater than 100 µM.

What about the TGI (NCI-H226 lung) of the same compound?
Its TGI is greater than 100 µM.

What about the TGI (NCI-H23 lung) of the same compound?
Its TGI is greater than 100 µM.

What about the TGI (NCI-H460 lung) of the same compound?
The TGI was greater than 100 µM.

What about the TGI (SK-MEL-5 melanoma) of the same compound?
Its TGI is greater than 100 µM.
